Values quoted from earlier work in patent US10226441B2, “Aging inhibitor” (NIHON SIZEN HAKKOH CO., LTD., priority 2014, dated 2019).

Test system: mice of the same species (SAM-P1, male)

| SMILES | Average survival (Days) (Non-Patent Literature 14) | Average survival, Age in weeks (Non-Patent Literature 14) [weeks] | Average survival (Non-Patent Literature 14, listed as reduced CoQ10) [days] |
| --- | --- | --- | --- |
| COc1c(O)c(C)c(C/C=C(\C)CC/C=C(\C)CC/C=C(\C)CC/C=C(\C)CC/C=C(\C)CC/C=C(\C)CC/C=C(\C)CC/C=C(\C)CC/C=C(\C)CCC=C(C)C)c(O)c1OC [CoQ10H2] | (519.64 ± 79.53) days | 74.234 | 519.64 |
| COC1=C(OC)C(=O)C(C/C=C(\C)CC/C=C(\C)CC/C=C(\C)CC/C=C(\C)CC/C=C(\C)CC/C=C(\C)CC/C=C(\C)CC/C=C(\C)CC/C=C(\C)CCC=C(C)C)=C(C)C1=O [CoQ10, coenzyme Q10] | – | 73.98 | – |
